What was measured:
[1] = Compound was tested for its plasma volume distribution in Sprague Dawley rats; details: rat
[2] = Compound was tested for its plasma half life in Sprague Dawley rats; details: rat
[3] = Compound was tested for its plasma clearance rate in Sprague Dawley rats; details: rat
in vivo = details: rhesus monkey, plasma, iv, 0.75 mg/kg
Description: Compound was tested for its plasma clearance rate in rhesus monkey at a dose of 0.75 mg/kg iv/ 1.5 mg/kg po

SMILES | Vd [1] | half-life [2] | clearance [3] | clearance (in vivo)
COc1cccc(F)c1-c1ccc([C@@H](CC(=O)O)NC(=O)[C@]2(C)CCCN2S(=O)(=O)c2cc(Cl)cc(Cl)c2)cc1 | 0.13 L/kg | 1.3 h | 2.3 mL/min/kg | 
COc1ccc([C@@H](CC(=O)O)NC(=O)[C@@H]2CCN2S(=O)(=O)c2cc(Cl)cc(Cl)c2)cc1 | 1.5 L/kg | 1.1 h | 22.1 mL/min/kg | 
COc1cc(F)cc(-c2ccc([C@@H](CC(=O)O)NC(=O)[C@]3(C)CCCN3S(=O)(=O)c3cc(Cl)cc(Cl)c3)cc2)c1 | 0.12 L/kg | 0.9 h | 2.5 mL/min/kg | 
COc1ccc(F)cc1-c1ccc([C@@H](CC(=O)O)NC(=O)[C@@H]2CCCN2S(=O)(=O)c2cc(Cl)cc(Cl)c2)cc1 | 0.58 L/kg | 3 h | 13.1 mL/min/kg | 
COc1ccccc1-c1ccc([C@@H](CC(=O)O)NC(=O)[C@H]2CCCN2S(=O)(=O)c2cc(Cl)cc(Cl)c2)cc1 | 0.08 L/kg | 1.3 h | 1.1 mL/min/kg | 
COc1cccc(F)c1-c1ccc([C@@H](CC(=O)O)NC(=O)[C@@H]2CCCN2S(=O)(=O)c2cc(Cl)cc(Cl)c2)cc1 | 0.19 L/kg | 0.7 h | 16.3 mL/min/kg | 
COc1cc(F)ccc1-c1ccc([C@@H](CC(=O)O)NC(=O)[C@@H]2CCCN2S(=O)(=O)c2cc(Cl)cc(Cl)c2)cc1 |  |  | 14.6 mL/min/kg | 
COc1cccc(OC)c1-c1ccc([C@@H](CC(=O)O)NC(=O)[C@@H]2CCCN2S(=O)(=O)c2cc(Cl)cc(Cl)c2)cc1 | 1.4 L/kg | 1.8 h | 51.6 mL/min/kg | 
COc1ccc(F)cc1-c1ccc([C@@H](CC(=O)O)NC(=O)[C@]2(C)CCCN2S(=O)(=O)c2cc(Cl)cc(Cl)c2)cc1 | 0.08 L/kg | 1.2 h | 2.3 mL/min/kg | 
COc1cccc(OC(F)(F)F)c1-c1ccc([C@@H](CC(=O)O)NC(=O)[C@]2(C)CCCN2S(=O)(=O)c2cc(Cl)cc(Cl)c2)cc1 | 1.1 L/kg | 1.6 h | 24.9 mL/min/kg | 
COc1ccccc1-c1ccc([C@@H](CC(=O)O)NC(=O)[C@@H]2CCN2S(=O)(=O)c2cc(Cl)cc(Cl)c2)cc1 | 0.12 L/kg | 2.4 h | 5 mL/min/kg | 22.1 mL/min/kg

— ChEMBL document CHEMBL1134900, “Substituted 3-amino biaryl propionic acids as potent VLA-4 antagonists” (Bioorg Med Chem Lett, 2002)
